Series [1] relates to IgE antibodies. Nature of the series: Formation of homocytotropic antibodies in rats, PCA (passive cutaneous anaphylaxis) reaction. The series is classed as in vivo, rats of wistar strain. As for the experimental part:
(§1) Effects on the formation of homocytotropic antibodies in rats
(§2) An experiment was carried out in accordance with the Tada and Okumura's method (J. Immunol., Vol. 106, p 1002, 1971).
(§3) Groups each consisting of 8-9 rats of wistar strain were used in this experiment.
(§4) As shown in Tables 2-5, to the four legs of the rats were injected 1 mg of dinitrophenylated extract of ascaris suum (DNP-As) as protein and 10^10 cells of vaccinum pertussis (B. Pertussis) for sensitization, after which the compounds of this invention were administered to the injected rats for 5 days. Eight to nine days after the sensitization, bloodletting was effected on these rats to collect their serum for estimating the amount of antibodies formed using passive cutaneous anaphylaxis (PCA) reactions and phytohemaglutinin (PHA) reactions.
(1) Estimation of the amount of antibodies by PCA reaction:
The collected serum was diluted in various concentrations and intradermally injected to other rats. Forty-eight (48) hours after the injection, 2 mg of DNP-As as protein and 0.5 ml of a 1% Evans Blue were intravenously injected into these rats to determine the dilution of the serum which induced the minimum extravasted dye. It should be noted that the symbols "*" and "**" in the following Tables indicate significant differences at risks of 5% and 1%, respectively. […]

Series [2] has as its system IgG and IgM. Nature of the series: Amount of antibodies formed in rats, PHA (phytohemaglutinin) reaction. The format is in vivo, rats of wistar strain. The protocol:
as §1, §2, §3, §4
(2) Estimation of the amount of antibodies by PHA reaction:
The collected serum was diluted in various concentrations and incubated with sheep red blood cells coupled with DNP-As using bis-diazoated benzydine to determine the dilution of the serum which induced the minimum hemaglutination. […]

Series [3] concerns IgE antibodies. Put plainly: Formation of homocytotropic antibodies in mice, PCA reaction. The series is classed as in vivo, mice (BALB/c strain), female. Conditions: 100 mg/Kg/day for 5 days. As for the experimental part: The collected serum was diluted in various concentrations and intradermally injected to other rats. Forty-eight (48) hours after the injection, 2 mg of DNP-As as protein and 0.5 ml of a 1% Evans Blue were intravenously injected into these rats to determine the dilution of the serum which induced the minimum extravasted dye. It should be noted that the symbols "*" and "**" in the following Tables indicate significant differences at risks of 5% and 1%, respectively.
(§5) Effects on the formation of homocytotropic antibodies in mice
(§6) Groups each consisting of 5 female mice (BALB/c strain) were used in this experiment. The mice were sensitized with 10 μg of DNP-As as protein and 3 mg of Al(OH)3, after which the test compound was administered to the sensitized mice for 5 days (at a dose of 100 mg/Kg/day). After the sensitization, a sample of serum was collected from the mice and treated in the same manner as in Experiment 1 to determine the amount of antibodies formed. […]

For series [4], the system named is IgG and IgM. Put plainly: Amount of antibodies formed in mice, PHA reaction. The series is classed as in vivo, mice (BALB/c strain), female. Conditions: 100 mg/Kg/day for 5 days. As for the experimental part: The collected serum was diluted in various concentrations and incubated with sheep red blood cells coupled with DNP-As using bis-diazoated benzydine to determine the dilution of the serum which induced the minimum hemaglutination.
as §5, §6

Series [5] can be described thus: Acute poisoning test on rats. Particulars: rat, in vivo, three weeks. As for the experimental part: (§7) Each of the test compounds was suspended in a physiological solution of sodium chloride containing 0.5% of tragacanth gum to obtain a test suspension. The test suspensions so obtained were administered to rats and mice in various ways. LD50 was calculated from test animals which died in three weeks after the start of the test.

Series [6] can be described thus: Acute poisoning test on mice. Particulars: mouse, in vivo, three weeks. The protocol: as §7
The mark [7] stands for this setting: Table 2, abdominal and oral administration, 5 days, serum 8 days after sensitization, control 237 (169-337).
Setting [8] is: Table 2, abdominal and oral administration, 5 days, serum 9 days after sensitization, control 169 (119-223).
Where [9] appears, read: Table 4, oral administration, serum 8 days after the sensitization, control 320 (270-370).
The mark [10] stands for this setting: Table 6, oral, serum 10 days after sensitization, control 256 ± 128.
The mark [11] stands for this setting: Table 6, oral, serum 21 days after sensitization, control 1024 ± 0.
Where [12] appears, read: Table 6, oral, serum 30 days after sensitization, control 299 ± 43.
Setting [13] is: Table 3 left half, hypodermic administration, serum 8 days after sensitization, control 144.5 (117.5-177.8).
Setting [14] is: Table 5 left half, hypodermic administration, serum 8 days after sensitization, control 1318.3 (933.3-1862.1).
The mark [15] stands for this setting: Table 9, hypodermic, serum 37 days after, control 3467.37 (2013.72-3767.04).
The mark [16] stands for this setting: Table 11, hypodermic, serum 9 days after, control 380.2 (269.2-537.0), 100 mg/kg/day.
[17] abbreviates: Table 7, oral, serum 10 days after sensitization, control 537.0 (436.5-660.7).
Setting [18] is: Table 8, hypodermic, serum 9 days after, control 708.0 (575.4-871.0).
Where [19] appears, read: Table 8, hypodermic, serum 10 days after, control 537.0 (380.2-758.6).
Where [20] appears, read: Table 8, hypodermic, serum 37 days after, control 2818.4 (1862.1-4265.8).
Where [21] appears, read: Table 10, oral, serum 10 days after, control 125.9 (95.5-166.0).
Setting [22] is: Table 11, hypodermic, serum 9 days after, control 380.2 (269.2-537.0).
[23] abbreviates: Table 11, hypodermic, serum 10 days after, control 109.7 (95.5-125.9).
The mark [24] stands for this setting: Table 11, hypodermic, serum 37 days after, control 1071.5 (871.0-1318.3).
The mark [25] stands for this setting: Table 3 right half, hypodermic administration, serum 8 days after sensitization, control 269.2 (218.8-331.1).
Where [26] appears, read: Table 5 right half, hypodermic administration, serum 8 days after sensitization, control 3235.9 (2454.7-4265.8).

We go through ten compounds from patent publication US4395405A, “Alkyl-ketohexopyranoside derivatives and method of use” (Hisamitsu Pharmaceutical Co., Inc., priority 1979, dated 1983).

`CCCCOC1(CO)OCC(O)C(O)C1O` [Compound No. 2, n-butyl-β-D-fructopyranoside]: the “PCA of rat: dilution of the serum which induced the minimum extravasted dye” value (shortened to “PCA of rat”) is 147 in series [1] (setting [7]) and 84.4 in series [1] (setting [8]). The “PHA of rat: dilution of the serum which induced the minimum hemaglutination” value (from here on “PHA of rat”) in series [2] (setting [9]) amounted to 600.

Turning to `CC(C)COC1(CO)OCC(O)C(O)C1O` [Compound No. 3, isobutyl-β-D-fructopyranoside], the entries for the “PCA of rat” value in series [1] (setting [7]) and in series [1] (setting [8]) were 73.5 and 97.0, respectively. Also, the “PHA of rat” value in series [2] (setting [9]) worked out at 630. The “PCA of mice (serum dilution)” value in series [3] (setting [10]) stood at 118 ± 37; in series [3] (setting [11]), 563 ± 125; in series [3] (setting [12]), 256 ± 129.

As to `CCCCCOC1(CO)OCC(O)C(O)C1O` [Compound No. 4, n-pentyl-β-D-fructopyranoside], the figures for the “PCA of rat” value in series [1] (setting [7]), in series [1] (setting [8]) and in series [1] (setting [13]) were 52.0, 51.9 and 102.4, respectively. For the same compound, the “PHA of rat” value in series [2] (setting [9]) worked out at 3250; in series [2] (setting [14]), 2454.7. Further, the “PCA of mice (serum dilution)” value in series [3] (setting [10]) was 88 ± 24; in series [3] (setting [11]), 328 ± 108; in series [3] (setting [12]), 272 ± 80; in series [3] (setting [15]) it was 177.83. Moreover, the “PHA of mice (serum dilution)” value in series [4] (setting [16]) is recorded as 309.0 (251.2-380.2). Besides, the LD50 at 504 h in series [5] (ip, abdominally, female) is more than 2780 mg/kg; in series [5] (ip, abdominally, male), more than 2780 mg/kg; in series [5] (iv, intravenously, female), 660 mg/kg; in series [5] (iv, intravenously, male) it was 670 mg/kg; in series [5] (po, orally, female), more than 4000 mg/kg; in series [5] (po, orally, male), more than 4000 mg/kg. The LD50 at 504 h in series [5] (sc, hypodermically, female) is 1300 mg/kg; in series [5] (sc, hypodermically, male) it was 1500 mg/kg; in series [6] (ip, abdominally, female), 2360 mg/kg; in series [6] (ip, abdominally, male), 2590 mg/kg; in series [6] (iv, intravenously, female) it was 930 mg/kg; in series [6] (iv, intravenously, male), 760 mg/kg. For the same compound, the median lethal dose (LD50) at 504 h is 3790 mg/kg in series [6] (po, orally, female); 3800 mg/kg in series [6] (po, orally, male); 1080 mg/kg in series [6] (sc, hypodermically, female); 1020 mg/kg in series [6] (sc, hypodermically, male).

On to `CC(C)CCOC1(CO)OCC(O)C(O)C1O` [Compound No. 5, isopentyl-β-D-fructopyranoside], for which the “PCA of rat” value in series [1] (setting [8]) was found to be 90.5. Further, the “PCA of mice (serum dilution)” value is reported as 316 ± 86 in series [3] (setting [10]), 480 ± 142 in series [3] (setting [11]) and 448 ± 64 in series [3] (setting [12]).

For `CCCCCCOC1(CO)OCC(O)C(O)C1O` [Compound No. 6, n-hexyl-β-D-fructopyranoside], the “PCA of rat” value in series [1] (setting [7]) was found to be 97.0; in series [1] (setting [8]) it was 147. Moreover, in series [2] (setting [9]), the “PHA of rat” value is listed as 810. The “PCA of mice (serum dilution)” value came to 320 in series [3] (setting [10]), 288 in series [3] (setting [11]) and 240 in series [3] (setting [12]).

For `CCCCOC1(CO)OCC(O)C(O)C1O` [Compound No. 9, n-butyl-α-L-sorbopyranoside], the “PCA of rat” value in series [1] (setting [13]) worked out at 47.9. Moreover, the “PHA of rat” value in series [2] (setting [14]) is on record as 5248.1. For the same compound, the “PCA of mice (serum dilution)” value in series [3] (setting [17]) is listed as 380.2; in series [3] (setting [18]) it was 708.0; in series [3] (setting [19]), 218.8; in series [3] (setting [20]), 1513.6; in series [3] (setting [15]) it was 251.19. Further, the “PHA of mice (serum dilution)” value in series [4] (setting [21]) was 177.8; in series [4] (setting [22]) it was 288.4 (245.5-354.8); in series [4] (setting [23]), 102.3 (89.1-117.5); in series [4] (setting [24]) it was 871.0 (660.7-1148.2).

On to `CCCCCOC1(CO)OCC(O)C(O)C1O` [Compound No. 11, n-pentyl-α-L-sorbopyranoside], for which the “PCA of rat” value in series [1] (setting [25]) is 154.9 (134.9-177.8). Also, in series [2] (setting [26]), the “PHA of rat” value was 3467.4 (2630.3-4570.8). The “PCA of mice (serum dilution)” value turned out to be 501.2 in series [3] (setting [17]) and 177.83 in series [3] (setting [15]). Moreover, the “PHA of mice (serum dilution)” value in series [4] (setting [21]) is 177.8; in series [4] (setting [16]), 354.8 (288.4-457.1); in series [4] (setting [23]), 109.7 (83.2-144.5); in series [4] (setting [24]) it was 1621.8 (1318.3-1995.3).

Take `CC(C)CCOC1(CO)OCC(O)C(O)C1O` [Compound No. 12, isopentyl-2-L-sorbopyranoside]: the “PCA of rat” value in series [1] (setting [25]) is reported as 234.4 (204.2-269.2). The “PHA of rat” value in series [2] (setting [26]) is 6025.6 (4897.8-7413.1). The “PCA of mice (serum dilution)” value in series [3] (setting [17]) turned out to be 269.2. Also, the “PHA of mice (serum dilution)” value is given as 109.7 in series [4] (setting [21]), 218.8 (109.7-436.5) in series [4] (setting [22]), 144.5 (125.9-166.0) in series [4] (setting [23]) and 1230.3 (871.0-1737.8) in series [4] (setting [24]).

In the case of `CCCCCCOC1(CO)OCC(O)C(O)C1O` [Compound No. 13, n-hexyl-α-L-sorbopyranoside], the “PHA of rat” value in series [2] (setting [26]) is recorded as 4265.8 (2630.3-6918.3). Further, the “PCA of mice (serum dilution)” value in series [3] (setting [18]) was 380.2; in series [3] (setting [19]) it was 708.0; in series [3] (setting [20]) it was 3235.9. Moreover, the “PHA of mice (serum dilution)” value is reported as 109.7 in series [4] (setting [21]), 125.9 (83.2-190.6) in series [4] (setting [22]), 102.3 (89.1-117.5) in series [4] (setting [23]) and 1148.2 (758.6-1737.8) in series [4] (setting [24]).

For the compound `O=P1(N(CCCl)CCCl)NCCCO1` (centres unmarked) [Cyclophosphamide, reference compound], the “PCA of rat” value in series [1] (setting [8]) is recorded as 16.0. Moreover, the “PCA of mice (serum dilution)” value is on record as 214 ± 103 in series [3] (setting [10]), 561 ± 71 in series [3] (setting [11]) and 368 ± 146 in series [3] (setting [12]).
